Source: patent publication US8003331B2, “Method for identifying target protein of drug and method for screening therapeutic agent for diabetes using the target protein” (Astellas Pharma Inc., priority 2005, dated 2011)
“Also recorded” adds a separate entry of the source.

What was measured:
[1] = biological target: T1, Glu 175 Val mutation type ATP5B (Homo sapiens, UniProt P06576, E175V); experiment: GST-DHFR / MTX-phenformin pull-down, Glu 175 Val mutation type ATP5B; type: binding; settings: pull-down assay as Example 5(4)
T1 construct: a complete length cDNA of about 1600 base pairs coding for a Glu 175 Val mutation type ATP5B; made in house
Excerpt: Using the aforementioned expression plasmid pcDNA-ATP5B as the template and using respective sets of primers of the nucleotide sequences represented by SEQ ID NO:87 and SEQ ID NO:81, and SEQ ID NO:80 and SEQ ID NO:88, two DNA fragments of about 530 base pairs of 5′-side and about 1080 base pairs of 3′-side of cDNA having a mutation in which the 175th position of amino acid, Glu, of human ATP5B was replaced by Val were amplified by PCR. All of the PCR reaction, cloning stem and determination of nucleotide sequence were the same as the methods shown in Example 5(1). Using an equivalent mixture of the thus obtained two PCR products as the template, PCR was carried out using the primers represented by SEQ ID NO:80 and SEQ ID NO:81 this time, thereby obtaining a complete length cDNA of about 1600 base pairs coding for a Glu 175 Val mutation type ATP5B. The thus obtained cDNA fragment was cloned into an expression vector (pcDNA3.1/V5-His-TOPO; Invitrogen), and then the nucleotide sequence inserted into the vector was identified using the synthetic primer represented by SEQ ID NO:90 to confirm that the Glu 175 Val mutation was formed in ATP5B. The thus obtained expression plasmid is referred to as pcDNA-ATP5B(E175V) hereinafter. […]

[2] = biological target: T2, Asp 295 Val mutation type ATP5B (Homo sapiens, UniProt P06576, D295V); experiment: GST-DHFR / MTX-phenformin pull-down, Asp 295 Val mutation type ATP5B; type: binding; settings: pull-down assay as Example 5(4)
T2 construct: a complete length cDNA coding for an Asp 295 Val mutation type ATP5B was obtained; made in house

ATP5B = biological target: T3, ATP5B (Rattus norvegicus, UniProt P10719); experiment: GST-HSPA4 pull-down from L 6 cell extract, silver staining and mass spectrum identification; type: binding; settings: phenformin 50 nM added vs no addition
T3 construct: a rat skeletal muscle-derived cell, L 6 cell (ATCC); endogenous in cells; host or cells: L6 (rat skeletal muscle)
Excerpt: Using the aforementioned method shown in Example 2(2), attempt was made to screen the target protein of biguanide whose direct target protein has been unclear in spite of its significant drug effect as an agent for treating diabetes. Firstly, a rat skeletal muscle-derived cell, L 6 cell (ATCC), was suspended in a minimum essential medium (αMEM, Invitrogen) containing 10% fetal calf serum (FCS) and cultured on a collagen-coated plate of 15 cm in diameter (Asahi Techno Glass) until reaching the confluent state. The resulting cells were washed twice with 15 ml of ice-cooled phosphate buffer (PBS) and then lysed by adding 2.0 ml of the aforementioned buffer A, and the cell extract was collected using a scraper. […] After 1 hour of shaking at 4° C., the protein binding to the GST-HSPA4 on beads was co-precipitated by centrifugation. In this connection, in order to prevent drop out of the molecular chaperone protein from the beads, the molecular chaperone protein and beads were used by chemically crosslinking them in advance by a conventionally known method. […] As a result, a large protein band of about 60 kDa, in which its amount to bind to the molecular chaperone protein is reduced at the time of adding phenformin in comparison with the case of no addition, was detected. […]

human ATP5B [3] = biological target: T4, human ATP5B (Homo sapiens, UniProt P06576); experiment: competitive inhibition of binding of ATP5B and MTX-phenformin; settings: MTX-phenformin 10 μM; free phenformin 10 μM; compounds A and B 'addition of 10'
T4 construct: an attempt was made to amplify complete length cDNA of human ATP5B; made in house; host or cells: cell-free: TNT Quick Coupled Transcription/Translation System (Promega) from pcDNA-ATP5B; GST-DHFR from E. coli BL21

human ATP5B [4] = biological target: T4, human ATP5B; experiment: GST-DHFR / MTX-phenformin GST pull-down of 35S-labeled ATP5B; type: binding; settings: 10 μM MTX-phenformin fixed to GST-DHFR; wild type ATP5B
Protocol: Promega) and 0.74 MBq of a radioisotope (redivue Pro-mix L-[35S]; Amersham) and in accordance with the protocols attached thereto. A 15 μl portion of this human ATP5B protein preparation liquid and 1 μg for each of the GST protein or GST-DHFR, purified on the glutathione Sepharose beads, were mixed and shaken at 4° C. for 1 hour after adding 0.3 ml of buffer A thereto. Thereafter, the protein binding to the GST protein or GST-DHFR on beads was co-precipitated by centrifugation. After repeating this operation 4 times, proteins in the precipitate were separated by SDS polyacrylamide gel electrophoresis in accordance with a conventionally known method, and the protein bound to the probe was detected by an autoradiography.

AMPK = AMPK activation ability detection in HeLa S3 cell (anti-phospho AMPK western blotting); type: cell-based, human; settings: phenformin 1 mM, 1 hr
Protocol: This expression plasmid pcDNA-LKB1 and the pcDNA-ATP5B prepared in the aforementioned Example 5(1) or an empty vector (pcDNA3.1) (Invitrogen) were transferred into HeLa S3 cell. The HeLa S3 cell (ATCC) was cultured in a 6 well culture plate (35 mm in well diameter) until it reached a state of 70% confluent, by adding 2 ml of a minimum essential medium DMEM (Gibco) containing 10% fetal bovine serum (Sigma) to each well of the culture plate. The medium was substituted by 1 ml per well of a serum-free medium OPTI MEM I (Invitrogen), and 3.0 μg/well of each of the empty vector (pcDNA3.1), pcDNA-LKB1 and pcDNA-ATP5B was transiently transferred using Lipofect amine 2000 (Invitrogen). After 12 hours of the culturing, this was substituted by 2 ml/well of DMEM containing 10% of fetal bovine serum from which low molecular substances had been removed by a charcoal treatment, and further cultured for 36 hours. This was further cultured for 1 hour (1 hr) under a condition of adding phenformin (Sigma) to a final concentration of 1 mM or the solvent (DMSO) alone. The medium was discarded, the cells were washed with a phosphate buffer (to be referred to as PBS hereinafter, and then the cells were lysed by adding 0.15 ml of the aforementioned buffer A (however, the NaCl concentration was 150 mM, and various phosphatase inhibitors; 2 mM Na3VO4, 10 mM NaF, 25 mM β-glycerophosphate, 0.2 mM Na2MoO4, 20 nM okadaic acid, were added). The activity of AMPK in the cells was detected at the level of phosphorylation of molecules by a conventionally known SDS electrophoresis and a western blotting which uses an anti-phosphorylation AMPK antibody (Phospho-AMPK-α(Thr172) Antibody, Daiichi Pure Chemicals). In this case, in order to confirm that there is no difference in the amount of protein of AMPKα (an AMPK subunit which undergoes phosphorylation) among samples, a western blotting which uses an anti-AMPKα antibody (Daiichi Pure Chemicals) was simultaneously carried out. […] However, in the cell in which human ATP5B was expressed by transferring pcDNA-ATP5B, activation of AMPK by phenformin treatment was not found.

With `[H]/N=C(/N)N/C(=N/[H])NCCc1ccccc1` [phenformin] the “binding with Glu 175 Val mutation type ATP5B” value [1] was “not able to confirm the binding; also recorded: disappearance”, the “binding with Asp 295 Val mutation type ATP5B” value [2] was “not able to confirm the binding; also recorded: disappearance” and the “amount of about 60 kDa protein band (ATP5B) binding to the molecular chaperone protein” value (ATP5B) was “reduced”. For the same compound, the “influence on binding of ATP5B and MTX-phenformin” value (human ATP5B [3]) was “obstructed”, the “binding with human ATP5B (band of about 60 kDa, autoradiography)” value (human ATP5B [4]) was “directly binds; also recorded: able to confirm binding” and the “phosphorylation level (activation) of AMPK” value (AMPK; HeLa S3 cell without ATP5B over-expression (empty vector- or pcDNA-LKB1-transferred), concentration of compounds A and B not given) was “significantly accelerated and activated”. The “activation of AMPK in cell over-expressing human ATP5B” value (AMPK; pcDNA-ATP5B-transferred HeLa S3 cell, metformin 10 mM) was “not found; also recorded: disappearance”.
